Tests used:
Format in all cases: cell-based
[1] = system: Acinetobacter baumannii expressing TEM-1, AmpC, and Oxa-24/40 (CL6188); conditions: lowest concentration inhibiting 95% of bacterial growth; BLi relebactam 4 μg/mL; 35±2° C., 22 hours; OD600
Procedure: (§1) The concentrations of compounds required to inhibit the growth of various strains of bacteria were determined in an assay that assessed bacterial growth by measuring optical density at 600 nm (OD600). The bacterial strains tested included the clinical strains Escherichia coli expressing NDM-1 (CLB30016), Klebsiella pneumoniae expressing KPC-1 (CL6569), Acinetobacter baumannii expressing TEM-1, AmpC, and Oxa-24/40 (CL6188) and Pseudomonas aeruginosa expressing AmpC (CL5701). All compounds were tested in the presence of a R lactamase inhibitor (BLi, Relebactam) in 384-well microplates.
(§2) The clinical strains were stored as frozen single use stocks, thawed and diluted into 1.1× cation-adjusted Mueller-Hinton II broth to achieve approximately 2×10^5 CFU/mL. Test compounds were dissolved in DMSO and diluted 1:50 in the assay, resulting in a final concentration range of 100 μM to 0.098 μM. On the day of the assay, 1 μL of test compound was added to the plate followed by 4 μL of 50 μg/mL BLi in MOPS buffer and 45 μL of diluted bacteria. Plates were centrifuged at 1000 rpm for 30 seconds, shaken at approximately 800 rpm for 1 minute, and incubated at 35±2° C. for 22 hours. The concentration of BLi used in the assay was 4 μg/mL. At the end of the incubation, absorbance at 600 nm was determined using a spectrophotometer. Inhibition was quantitated by identifying the lowest concentration of test compound that was required to inhibit 95% of the growth of the bacteria. The results for Examples 1-39 are reported in Table I, expressed as the concentration of compound that inhibited 95% of bacterial growth (Minimum Inhibitory Threshold Concentration; MITC95).

[2] = system: Pseudomonas aeruginosa expressing AmpC (CL5701); assay: Growth inhibitory concentration (OD600), P. aeruginosa CL5701, with relebactam; conditions: lowest concentration inhibiting 95% of bacterial growth, BLi relebactam 4 μg/mL, 35±2° C., 22 hours
Procedure: as §1, §2

[3] = system: Escherichia coli expressing NDM-1 (CLB30016); assay: Growth inhibitory concentration (OD600), E. coli CLB30016, with relebactam; conditions: lowest concentration inhibiting 95% of bacterial growth, BLi relebactam 4 μg/mL, 35±2° C., 22 hours
Procedure: as §1, §2

| Compound | AB—CL6188 MITC95 [1] | PA—CL5701 MITC95 [2] | EC—CLB30016 MITC95 [3] |
| --- | --- | --- | --- |
| CC1(C)[C@H](NC(=O)/C(=N\O[C@](C)(C(=O)O)[C@H]2CCc3cc(C(=N)NC[C@H]4C[C@](N)(CO)C4)ccc3O2)c2csc(N)n2)C(=O)N1OS(=O)(=O)O [Compound 70, (S)-2-((R)-6-(N-(((1s,3S)-3-amino-3-(hydroxymethyl)cyclobutyl)methyl)-carbamimidoyl)-chroman-2-yl)-2-((((Z)-1-(2-aminothiazol-4-yl)-2-(((S)-2,2-dimethyl-4-oxo-1-(sulfooxy)-azetidin-3-yl)amino)-2-oxoethylidene)amino)oxy)propanoic acid] | 6.25 µM | 1.563 µM | 6.25 µM |
| CC1(C)[C@H](NC(=O)/C(=N\O[C@](C)(C(=O)O)[C@H]2CCc3cc(C(=N)NC[C@H]4C[C@@](N)(CO)C4)ccc3O2)c2csc(N)n2)C(=O)N1OS(=O)(=O)O [Compound 71, (S)-2-((R)-6-(N-(((1r,3R)-3-amino-3-(hydroxymethyl)cyclobutyl)methyl)-carbamimidoyl)-chroman-2-yl)-2-((((Z)-1-(2-aminothiazol-4-yl)-2-(((S)-2,2-dimethyl-4-oxo-1-(sulfooxy)-azetidin-3-yl)amino)-2-oxoethylidene)amino)oxy)propanoic acid] | 3.125 µM | 1.563 µM | 6.25 µM |
| tert-butyl (S)-2-((((Z)-1-(2-((tert-butoxycarbonyl)amino)thiazol-4-yl)-2-(((S)-2,2-dimethyl-4-oxo-1-(sulfooxy)azetidin-3-yl)amino)-2-oxoethylidene)amino)oxy)-2-((R)-6-(N—(((S)-morpholin-2-yl)methyl)carbamimidoyl)chroman-2-yl)propanoate [Compound 32] | 12.5 µM | 3.125 µM | 6.25 µM |

— patent publication US20260258029A1, “CHROMANE AMIDINE MONOBACTAM COMPOUNDS FOR THE TREATMENT OF BACTERIAL INFECTIONS” (priority 2022, published 2026)
